pIC50: −log10 of the molar value. ≈ marks a conversion by molar mass, not a printed value. Counter-ions that a name gives are not always drawn. Like-named read-outs stand apart in the source and are kept apart here. Values belong to the molecule of their own block, whether it stands above or below them.
Assays:
[1] = Solubility test by UV-Vis spectroscopy of saturated solutions; format: physicochemical; conditions: solvent DMSO
[2] = as above; format: physicochemical; conditions: saturated solution; for solubility: thermodynamic from solid
Method: All UV-Vis measurements were carried out with an Agilent Cary 60 UV-Vis 2.00 between 800-200 nm. The absorbance was measured with a scan rate of 300.0 nm/min, a data interval of 0.50 nm and an UV-Vis Average Time of 0.10 s. For all measurements a cuvette with 10 mm light path was used. A calibration curve was plotted from several different concentrations and the solubility of the respective compound was determined by measuring the absorbance of a diluted saturated solution. As a blank curve a mixture of ultrapure water and ethanol in a ratio of 1:1 or 5:95 was recorded. For the calibration curve a 100 μM or a 10 μM solution of the compound in an ultrapure water:ethanol (1:1) or (5:95)-mixture was prepared and diluted to obtain at least 6 concentrations. […] The supernatant was taken using a syringe and filtered through a syringe filter (RC Membrane). The saturated solution was diluted with ultrapure water and ethanol to obtain an appropriate concentration in a water:ethanol (1:1) or (5:95)-mixture. The long wave absorbance maximum was used for determination of the solubility (mean values, determination in triplicate). […] By plotting the concentration of the solution against the absorbance values at the previously determined wavelength maximum a calibration curve was obtained (FIG. 1B).

human FLT3-ITD = target: T1, human FLT3-ITD (Homo sapiens, UniProt P36888); assay: Enzymatic kinase assay FLT3 (ITD), 10-dose IC50 mode (Reaction Biology); format: biochemical
T1 sequence (P36888 1-993): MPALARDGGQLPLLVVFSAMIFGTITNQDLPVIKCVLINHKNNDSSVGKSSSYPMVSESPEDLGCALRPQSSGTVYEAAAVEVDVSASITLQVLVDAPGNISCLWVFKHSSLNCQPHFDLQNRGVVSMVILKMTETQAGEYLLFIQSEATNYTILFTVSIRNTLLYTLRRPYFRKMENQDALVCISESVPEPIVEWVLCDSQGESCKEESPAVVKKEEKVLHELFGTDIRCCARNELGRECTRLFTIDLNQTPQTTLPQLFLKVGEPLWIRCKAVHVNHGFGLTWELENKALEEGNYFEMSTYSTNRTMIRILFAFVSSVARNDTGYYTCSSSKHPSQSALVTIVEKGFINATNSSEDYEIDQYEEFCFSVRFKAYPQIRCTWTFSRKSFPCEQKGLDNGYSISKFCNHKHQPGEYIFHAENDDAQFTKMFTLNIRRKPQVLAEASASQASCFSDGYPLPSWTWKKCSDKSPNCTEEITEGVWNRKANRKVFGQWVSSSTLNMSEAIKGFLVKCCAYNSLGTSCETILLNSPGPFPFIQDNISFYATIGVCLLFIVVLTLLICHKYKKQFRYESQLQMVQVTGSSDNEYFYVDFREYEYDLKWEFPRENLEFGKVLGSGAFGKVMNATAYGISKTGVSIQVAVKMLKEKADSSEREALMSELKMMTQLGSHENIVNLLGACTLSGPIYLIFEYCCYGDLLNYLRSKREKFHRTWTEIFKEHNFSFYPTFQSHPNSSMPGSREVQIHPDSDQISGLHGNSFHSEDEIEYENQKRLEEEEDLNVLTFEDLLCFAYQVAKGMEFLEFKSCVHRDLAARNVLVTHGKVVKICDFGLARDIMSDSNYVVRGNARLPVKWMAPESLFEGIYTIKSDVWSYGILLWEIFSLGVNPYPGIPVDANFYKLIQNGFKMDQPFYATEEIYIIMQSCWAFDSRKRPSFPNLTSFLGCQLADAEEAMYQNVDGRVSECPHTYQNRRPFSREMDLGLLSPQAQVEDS

[3] = test system: subcutaneous MV4-11 CDX model; assay: In vivo efficacy study in subcutaneous MV4-11 CDX model in NOD/SCID mice; conditions: 50 mg/kg po daily 5 days
[4] = ethanol, organic solvent or mixture, ethanol, read-out: Solubility Ethanol
[5] = ultrapure water, water, ultrapure water, read-out: Solubility Water
[6] = 10 μM ATP; read-out: IC50 FLT3 (ITD)
[7] = ethanol, 2,2,2-trifluoroacetate
[8] = read-out: IC50 FLT3 (ITD); 10 μM ATP

Solubility DMSO [1]: Soluble
solubility [2, 4]: 2570 µg/mL (≈ 4610 µM)
solubility [2, 5]: 140 µg/mL (≈ 251 µM)
Compound: CC(C)(C)c1cc(NC(=O)Nc2ccc3oc(C(=O)c4cc5c(CN6CCOCC6)c(O)ccc5[nH]4)cc3c2)no1 [Compound 30b, 1-(5-(tert-Butyl)isoxazol-3-yl)-3-(2-(5-hydroxy-4-(morpholinomethyl)-1H-indole-2-carbonyl)benzofuran-5-yl)urea 2,2,2-trifluoroacetate]

pIC50 (human FLT3-ITD; [6]): 8.70
Compound: CC(C)(C)c1cc(NC(=O)Nc2ccc3oc(C(=O)c4cc5c(CN6CCOCC6)c(O)ccc5[nH]4)cc3c2)no1 [Compound 30c, 1-(5-(tert-Butyl)isoxazol-3-yl)-3-(2-(5-hydroxy-4-(morpholinomethyl)-1H-indole-2-carbonyl)benzofuran-5-yl)urea hydrochloride]

Solubility DMSO [1]: Soluble
solubility [2, 4]: 2200 µg/mL (≈ 3960 µM)
solubility [2, 5]: < 100 µg/mL
Compound: CC(C)(C)c1cc(NC(=O)Nc2ccc3oc(C(=O)c4cc5c(CN6CCCCC6)c(O)ccc5[nH]4)cc3c2)no1 [Compound 31a, 1-(5-(tert-Butyl)isoxazol-3-yl)-3-(2-(5-hydroxy-4-(piperidin-1-ylmethyl)-1H-indole-2-carbonyl)benzofuran-5-yl)urea]

Solubility Ethanol [2, 7]: 1890 µg/mL (≈ 3400 µM)
Compound: CC(C)(C)c1cc(NC(=O)Nc2ccc3oc(C(=O)c4cc5c(CN6CCCCC6)c(O)ccc5[nH]4)cc3c2)no1 [Compound 31b, 1-(5-(tert-Butyl)isoxazol-3-yl)-3-(2-(5-hydroxy-4-(piperidin-1-ylmethyl)-1H-indole-2-carbonyl)benzofuran-5-yl)urea 2,2,2-trifluoroacetate]

Solubility DMSO [1]: Soluble
Solubility Ethanol ([2]; ethanol): 910 µg/mL (≈ 1680 µM)
solubility [2, 5]: < 100 µg/mL
Compound: CC(C)(C)c1cc(NC(=O)Nc2ccc3oc(C(=O)c4cc5c(CN6CCCC6)c(O)ccc5[nH]4)cc3c2)no1 [Compound 32a, 1-(5-(tert-Butyl)isoxazol-3-yl)-3-(2-(5-hydroxy-4-(pyrrolidin-1-ylmethyl)-1H-indole-2-carbonyl)benzofuran-5-yl)urea]

Solubility Ethanol [2, 7]: 2400 µg/mL (≈ 4430 µM)
Compound: CC(C)(C)c1cc(NC(=O)Nc2ccc3oc(C(=O)c4cc5c(CN6CCCC6)c(O)ccc5[nH]4)cc3c2)no1 [Compound 32b, 1-(5-(tert-Butyl)isoxazol-3-yl)-3-(2-(5-hydroxy-4-(pyrrolidin-1-ylmethyl)-1H-indole-2-carbonyl)benzofuran-5-yl)urea 2,2,2-trifluoroacetate]

Compound: CN(C)Cc1c(O)ccc2[nH]c(C(=O)c3cc4cc(NC(=O)Nc5cc(C(C)(C)C)on5)ccc4o3)cc12 [Compound 34a, 1-(5-tert-Butylisoxazol-3-yl)-3-(2-(4-((dimethylamino)methyl)-5-hydroxy-1H-indole-2-carbonyl)benzofuran-5-yl)urea]
pIC50 (human FLT3-ITD; [6]): 8.82

Compound: CC(C)(C)c1cc(NC(=O)Nc2ccc3oc(C(=O)c4cc5c(CN6CCOCC6)c(OC(=O)N6CCC(N7CCCCC7)CC6)ccc5[nH]4)cc3c2)no1 [Compound 38a, 2-(5-(3-(5-(tert-Butyl)isoxazol-3-yl)ureido)benzofuran-2-carbonyl)-4-(morpholinomethyl)-1H-indol-5-yl[1,4′-bipiperidine]-1′-carboxylate]
solubility [2, 4]: 890 µg/mL (≈ 1180 µM)
solubility [2, 5]: < 100 µg/mL

Compound: CC(C)(C)c1cc(NC(=O)Nc2ccc3oc(C(=O)c4cc5c(CN6CCOCC6)c(OC(=O)N6CCC(N7CCCCC7)CC6)ccc5[nH]4)cc3c2)no1 [Compound 38c, 2-(5-(3-(5-(tert-Butyl)isoxazol-3-yl)ureido)benzofuran-2-carbonyl)-4-(morpholinomethyl)-1H-indol-5-yl [1,4′-bipiperidine]-1′-carboxylate Dihydrochloride]
pIC50 (human FLT3-ITD; read-out: IC50 FLT3 (ITD); 10 μM ATP; Dihydrochloride): 8.82

Compound: CC(C)(C)c1cc(NC(=O)Nc2ccc3oc(C(=O)c4cc5c(CN6CCCCC6)c(OC(=O)N6CCC(N7CCCCC7)CC6)ccc5[nH]4)cc3c2)no1 [Compound 39a, 2-(5-(3-(5-(tert-Butyl)isoxazol-3-yl)ureido)benzofuran-2-carbonyl)-4-(piperidin-1-ylmethyl)-1H-indol-5-yl [1,4′-bipiperidine]-1′-carboxylate]
pIC50 (human FLT3-ITD; [8]): 8.94
solubility [2, 4]: 1590 µg/mL (≈ 2120 µM)
solubility [2, 5]: < 100 µg/mL

Compound: CC(C)(C)c1cc(NC(=O)Nc2ccc3oc(C(=O)c4cc5c(CN6CCCC6)c(OC(=O)N6CCC(N7CCCCC7)CC6)ccc5[nH]4)cc3c2)no1 [Compound 40a, 2-(5-(3-(5-(tert-Butyl)isoxazol-3-yl)ureido)benzofuran-2-carbonyl)-4-(pyrrolidin-1-ylmethyl)-1H-indol-5-yl [1,4′-bipiperidine]-1′-carboxylate]
pIC50 (human FLT3-ITD; [8]): 8.94
solubility [2, 4]: 1240 µg/mL (≈ 1690 µM)
solubility [2, 5]: < 100 µg/mL

Compound: CN1CCN(Cc2c(OC(=O)N3CCC(N4CCCCC4)CC3)ccc3[nH]c(C(=O)c4cc5cc(NC(=O)Nc6cc(C(C)(C)C)on6)ccc5o4)cc23)CC1 [Compound 41c, 2-(5-(3-(5-(tert-Butyl)isoxazol-3-yl)ureido)benzofuran-2-carbonyl)-4-((4-methylpiperazin-1-yl)methyl)-1H-indol-5-yl [1,4′-bipiperidine]-1′-carboxylate Trihydrochloride]
pIC50 (human FLT3-ITD; read-out: IC50 FLT3 (ITD); 10 μM ATP; Trihydrochloride): 9.30

Compound: CN(C)Cc1c(OC(=O)N2CCC(N3CCCCC3)CC2)ccc2[nH]c(C(=O)c3cc4cc(NC(=O)Nc5cc(C(C)(C)C)on5)ccc4o3)cc12 [Compound 42a, 2-(5-(3-(5-(tert-Butyl)isoxazol-3-yl)ureido)benzofuran-2-carbonyl)-4-((dimethylamino)methyl)-1H-indol-5-yl [1,4′-bipiperidine]-1′-carboxylate]
pIC50 (human FLT3-ITD; [8]): 8.91

Solubility DMSO [1]: Soluble
solubility [2, 4]: 900 µg/mL (≈ 1370 µM)
solubility [2, 5]: < 100 µg/mL
Compound: CC(C)(C)OC(=O)N1CCN(Cc2c(O)ccc3[nH]c(C(=O)c4cc5cc(NC(=O)Nc6cc(C(C)(C)C)on6)ccc5o4)cc23)CC1 [Compound 54a]

Solubility DMSO [1]: Soluble
Solubility Ethanol ([2]; ethanol): 4410 µg/mL (≈ 7540 µM)
Solubility Water ([2]; ultrapure water): 100 µg/mL (≈ 171 µM)
Compound: CCN1CCN(Cc2c(O)ccc3[nH]c(C(=O)c4cc5cc(NC(=O)Nc6cc(C(C)(C)C)on6)ccc5o4)cc23)CC1 [Compound 69b]

Solubility Ethanol ([2]; ethanol, bis(2,2,2-trifluoroacetate)): 1820 µg/mL (≈ 3040 µM)
Solubility Water ([2]; ultrapure water, bis(2,2,2-trifluoroacetate)): 370 µg/mL (≈ 618 µM)
Compound: CC(C)N1CCN(Cc2c(O)ccc3[nH]c(C(=O)c4cc5cc(NC(=O)Nc6cc(C(C)(C)C)on6)ccc5o4)cc23)CC1 [Compound 70b, 1-(5-(tert-Butyl)isoxazol-3-yl)-3-(2-(5-hydroxy-4-((4-isopropylpiperazin-1-yl)methyl)-1H-indole-2-carbonyl)benzofuran-5-yl)urea bis(2,2,2-trifluoroacetate)]

Compound: CO[C@@H]1[C@H](N(C)C(=O)c2ccccc2)C[C@H]2O[C@]1(C)n1c3ccccc3c3c4c(c5c6ccccc6n2c5c31)C(=O)NC4 [Midostaurin, reference compound]
first death(s) (day of study) [3]: 520000 s
second death (day of study) [3]: 9 days
number of living subjects, day of study 5 ([3]; 5 mice): 5
number of living subjects, day of study 6 ([3]; 5 mice): 4
number of living subjects, day of study 8 ([3]; 5 mice): 4
number of living subjects, day of study 13 ([3]; 5 mice): 3
number of living subjects, day of study 26 ([3]; 5 mice): 3
number of living subjects, day of study 36 ([3]; 5 mice): 0

— patent US20260184702A1, “SYNTHESIS, PHARMACOLOGY AND USE OF NEW WATER-SOLUBLE AND SELECTIVE FMS-LIKE TYROSINE KINASE3 (FLT3) INHIBITORS” (Universität Regensburg, priority 2022, published 2026)
